Consider one compound from article PMC3145672, “X-Ray Structure Reveals a New Class and Provides Insight into Evolution of Alkaline Phosphatases” (PLoS ONE, 2011).

This experiment concerns the target T1, SPAP (Sphingomonas sp., UniProt A1YYW7).
T1 construct: gene phoK; recombinant in E. coli, Ni-NTA purified; precursor 559 residues, predicted signal peptide 1-19; residues 31-556 visible in crystal; active monomer, 58 kD by SEC
T1 sequence (A1YYW7 20-559): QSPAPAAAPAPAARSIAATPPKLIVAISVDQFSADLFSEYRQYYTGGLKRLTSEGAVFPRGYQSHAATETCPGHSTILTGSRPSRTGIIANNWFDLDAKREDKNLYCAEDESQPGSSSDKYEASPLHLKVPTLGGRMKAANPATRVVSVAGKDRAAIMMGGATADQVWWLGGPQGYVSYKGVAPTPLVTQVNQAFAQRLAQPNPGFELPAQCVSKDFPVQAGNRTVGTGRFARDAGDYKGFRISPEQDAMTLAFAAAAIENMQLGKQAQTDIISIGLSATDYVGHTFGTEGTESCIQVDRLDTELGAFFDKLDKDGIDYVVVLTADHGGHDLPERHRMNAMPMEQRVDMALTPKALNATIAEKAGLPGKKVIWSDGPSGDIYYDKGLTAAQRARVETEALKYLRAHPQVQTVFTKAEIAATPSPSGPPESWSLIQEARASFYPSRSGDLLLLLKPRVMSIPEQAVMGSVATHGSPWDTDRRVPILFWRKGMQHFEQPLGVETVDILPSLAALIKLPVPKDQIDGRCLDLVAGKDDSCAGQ
The experiment can be described thus: release of pNP at […] nm. The class given is biochemical. Conditions: pH 8.5, room temperature; size exclusion chromatography fraction. On the technique in general: Size exclusion chromatography separates by hydrodynamic size, large species first.

Structures are written as SMILES.

In the case of `O=[N+]([O-])c1ccc(OP(=O)(O)O)cc1` [pNPP], the “release of pNP at 405 nm” value was “Catalytic activity of eluted SPAP fraction was checked, at room temperature”.
